Measured values as given in PubChem BioAssay (NCI).
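The concentration for 50% growth inhibition is given as GI50. TGI: total growth inhibition.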

Columns and labels:
Assay in all cases: NCI-60 cell line screen, 384-well format
[1] = test system: MCF7 breast
[2] = test system: BT-549 breast
[3] = test system: OVCAR-5 ovarian
[4] = test system: MOLT-4 leukemia
[5] = test system: 786-0 renal
[6] = test system: OVCAR-4 ovarian
[7] = test system: MDA-MB-468 breast
[8] = test system: SK-MEL-2 melanoma
[9] = test system: SK-MEL-28 melanoma
[10] = test system: T-47D breast
[11] = test system: MDA-MB-435 melanoma
[12] = test system: A498 renal
[13] = test system: MDA-MB-231 breast
[14] = test system: TK-10 renal
[15] = test system: RXF 393 renal
[16] = test system: SF-295 CNS
[17] = test system: SNB-75 CNS
[18] = test system: SK-MEL-5 melanoma
[19] = test system: HS 578T breast
[20] = test system: SF-268 CNS
[21] = test system: HL-60(TB) leukemia
[22] = test system: HCT-15 colon
[23] = test system: DU-145 prostate
[24] = test system: SW-620 colon
[25] = test system: IGROV1 ovarian
[26] = test system: CCRF-CEM leukemia
[27] = test system: PC-3 prostate
[28] = test system: MALME-3M melanoma
[29] = test system: NCI-H226 lung
[30] = test system: SN12C renal
[31] = test system: EKVX NSCLC
[32] = test system: OVCAR-3 ovarian
[33] = test system: U251 glioblastoma
[34] = test system: HCC-2998 colon
[35] = test system: SR leukemia
[36] = test system: HOP-62 NSCLC
[37] = test system: NCI-H23 lung
[38] = test system: NCI-H460 NSCLC
[39] = test system: KM12 colon
[40] = test system: M14 melanoma
[41] = test system: NCI/ADR-RES ovarian
[42] = test system: SK-OV-3 ovarian
[43] = test system: OVCAR-8 ovarian
[44] = test system: CAKI-1 renal
[45] = test system: UACC-257 melanoma
[46] = test system: SNB-19 CNS
[47] = test system: NCI-H522 lung
[48] = test system: ACHN renal
[49] = test system: UACC-62 melanoma
[50] = test system: COLO 205 colon
[51] = test system: A549 NSCLC
[52] = test system: HOP-92 NSCLC
[53] = test system: RPMI-8226 leukemia
[54] = test system: SF-539 CNS
[55] = test system: HT29 colon
[56] = test system: NCI-H322M lung

Compound: O=P(O)(O)C(O)(Cn1ccnc1)P(=O)(O)O
- GI50 [1]: > 100 µM
- TGI [1]: > 100 µM
- GI50 [2]: > 100 µM
- TGI [2]: > 100 µM
- GI50 [3]: > 100 µM
- TGI [3]: > 100 µM
- GI50 [4]: > 100 µM
- TGI [4]: > 100 µM
- GI50 [5]: > 100 µM
- TGI [5]: > 100 µM
- GI50 [6]: > 100 µM
- TGI [6]: > 100 µM
- GI50 [7]: > 100 µM
- TGI [7]: > 100 µM
- GI50 [8]: > 100 µM
- TGI [8]: > 100 µM
- GI50 [9]: > 100 µM
- TGI [9]: > 100 µM
- GI50 [10]: > 100 µM
- TGI [10]: > 100 µM
- GI50 [11]: > 100 µM
- TGI [11]: > 100 µM
- GI50 [12]: > 100 µM
- TGI [12]: > 100 µM
- GI50 [13]: > 100 µM
- TGI [13]: > 100 µM
- GI50 [14]: > 100 µM
- TGI [14]: > 100 µM
- GI50 [15]: > 100 µM
- TGI [15]: > 100 µM
- GI50 [16]: > 100 µM
- TGI [16]: > 100 µM
- GI50 [17]: > 100 µM
- TGI [17]: > 100 µM
- GI50 [18]: > 100 µM
- TGI [18]: > 100 µM
- GI50 [19]: > 100 µM
- TGI [19]: > 100 µM
- GI50 [20]: > 100 µM
- TGI [20]: > 100 µM
- GI50 [21]: > 100 µM
- TGI [21]: > 100 µM
- GI50 [22]: > 100 µM
- TGI [22]: > 100 µM
- GI50 [23]: > 100 µM
- TGI [23]: > 100 µM
- GI50 [24]: > 100 µM
- TGI [24]: > 100 µM
- GI50 [25]: > 100 µM
- TGI [25]: > 100 µM
- GI50 [26]: > 100 µM
- TGI [26]: > 100 µM
- GI50 [27]: > 100 µM
- TGI [27]: > 100 µM
- GI50 [28]: > 100 µM
- TGI [28]: > 100 µM
- GI50 [29]: > 100 µM
- TGI [29]: > 100 µM
- GI50 [30]: > 100 µM
- TGI [30]: > 100 µM
- GI50 [31]: > 100 µM
- TGI [31]: > 100 µM
- GI50 [32]: > 100 µM
- TGI [32]: > 100 µM
- GI50 [33]: > 100 µM
- TGI [33]: > 100 µM
- GI50 [34]: > 100 µM
- TGI [34]: > 100 µM
- GI50 [35]: > 100 µM
- TGI [35]: > 100 µM
- GI50 [36]: > 100 µM
- TGI [36]: > 100 µM
- GI50 [37]: > 100 µM
- TGI [37]: > 100 µM
- GI50 [38]: > 100 µM
- TGI [38]: > 100 µM
- GI50 [39]: > 100 µM
- TGI [39]: > 100 µM
- GI50 [40]: > 100 µM
- TGI [40]: > 100 µM
- GI50 [41]: > 100 µM
- TGI [41]: > 100 µM
- GI50 [42]: > 100 µM
- TGI [42]: > 100 µM
- GI50 [43]: > 100 µM
- TGI [43]: > 100 µM
- GI50 [44]: > 100 µM
- TGI [44]: > 100 µM
- GI50 [45]: > 100 µM
- TGI [45]: > 100 µM
- GI50 [46]: > 100 µM
- TGI [46]: > 100 µM
- GI50 [47]: > 100 µM
- TGI [47]: > 100 µM
- GI50 [48]: > 100 µM
- TGI [48]: > 100 µM
- GI50 [49]: > 100 µM
- TGI [49]: > 100 µM
- GI50 [50]: > 100 µM
- TGI [50]: > 100 µM
- GI50 [51]: > 100 µM
- TGI [51]: > 100 µM
- GI50 [52]: > 100 µM
- TGI [52]: > 100 µM
- GI50 [53]: > 100 µM
- TGI [53]: > 100 µM
- GI50 [54]: > 100 µM
- TGI [54]: > 100 µM
- GI50 [55]: > 100 µM
- TGI [55]: > 100 µM
- GI50 [56]: > 100 µM
- TGI [56]: > 100 µM
